Assay results: patent USRE44733E1, “6-mercapto-cyclodextrin derivatives:reversal agents for drug-induced neuromuscular block” (Merck Sharp & Dohme B.V., priority 1999, dated 2014)

System: neuromuscular block, induced by the muscle relaxant rocuronium bromide (Roc)
Assay: Reversal of neuromuscular blockade in anaesthetized guinea pigs in vivo
Details: for concentration at maximum reversal (at conc.) / % max reversal: anaesthetized guinea pigs, rocuronium bromide steady-state block; for concentration at maximum reversal (at conc.): dose of reversal agent at which % max reversal was seen; for % max reversal: maximum reversal; for ED50: dose producing 50% reversal of steady-state neuromuscular block: anaesthetized male Dunkin-Hartley guinea pigs, steady-state block of 85-90% by continuous rocuronium bromide infusion, reversal agent given by jugular vein catheter, M. gastrocnemius contractions
Method: Reversal of Neuromuscular Blockade in Anaesthetized Guinea Pigs in vivo
Male Dunkin-Hartley guinea pigs (bodyweight: 600-900 g) were anaesthetized by i.p. administration of 10 mg/kg pentobarbitone and 1000 mg/kg urethane. After tracheotomy, the animals were artificially ventilated using a Harvard small animal ventilator. A catheter was placed into the carotid artery for continuous monitoring of arterial blood pressure and the taking of blood samples for blood gas analysis. Heart rate was derived from the blood pressure signal. The sciatic nerve was stimulated (rectangular pulses of 0.5 ms duration at 10 s (0.1 Hz) intervals at a supramaximal voltage, using a Grass S88 Stimulator) and the force of M. gastrocnemius contractions was measured using a Grass FT03 force-displacement transducer. Contractions, blood pressure and heart rate were recorded on a multichannel Grass 7D recorder. Catheters were placed in both jugular veins. One catheter was used for the continuous infusion of a neuromuscular blocking agent. The infusion rate of the neuromuscular blocking agent was increased until a steady-state block of 85-90% was obtained. The other catheter was used for administration of increasing doses of the reversal agent. During continuous infusion of the neuromuscular blocking agent, single doses of increasing concentration of reversal agent were given. At the end of the experiment, the measured force of muscle contractions was plotted against the concentration of reversal agent, and using regression analysis techniques, the 50% reversal concentration was calculated. Results for the reversal of the neuromuscular block, induced by the muscle relaxant rocuronium bromide (Roc), by the 6-mercapto-cyclodextrin derivatives of Examples 1-19 are presented in Table I. For comparison, the reversal activity of the parent compounds β-cyclodextrin and γ-cyclodextrin are included as well.

## OCCOCCSCC1OC2OC3C(CSCCOCCO)OC(OC4C(CSCCOCCO)OC(OC5C(CSCCOCCO)OC(OC6C(CSCCOCCO)OC(OC7C(CSCCOCCO)OC(OC8C(CSCCOCCO)OC(OC9C(CSCCOCCO)OC(OC1C(O)C2O)C(O)C9O)C(O)C8O)C(O)C7O)C(O)C6O)C(O)C5O)C(O)C4O)C(O)C3O (stereo not drawn) [example 11, 6-Per-deoxy-6-per(5-hydroxy-3-oxa-pentyl)thio-γ-cyclodextrin]
  concentration at maximum reversal (at conc.): (2.1) μmol · kg^−1
  % max reversal: 92%
  ED50: dose producing 50% reversal of steady-state neuromuscular block: 0.47 µmol/kg

## O=C([O-])c1ccccc1C(=O)NCCSC[C@H]1O[C@@H]2O[C@H]3[C@H](O)[C@@H](O)[C@@H](O[C@H]4[C@H](O)[C@@H](O)[C@@H](O[C@H]5[C@H](O)[C@@H](O)[C@@H](O[C@H]6[C@H](O)[C@@H](O)[C@@H](O[C@H]7[C@H](O)[C@@H](O)[C@@H](O[C@H]8[C@H](O)[C@@H](O)[C@@H](O[C@H]9[C@H](O)[C@@H](O)[C@@H](O[C@H]1[C@H](O)[C@H]2O)O[C@@H]9CSCCNC(=O)c1ccccc1C(=O)[O-])O[C@@H]8CSCCNC(=O)c1ccccc1C(=O)[O-])O[C@@H]7CSCCNC(=O)c1ccccc1C(=O)[O-])O[C@@H]6CSCCNC(=O)c1ccccc1C(=O)[O-])O[C@@H]5CSCCNC(=O)c1ccccc1C(=O)[O-])O[C@@H]4CSCCNC(=O)c1ccccc1C(=O)[O-])O[C@@H]3CSCCNC(=O)c1ccccc1C(=O)[O-].[Na+].[Na+].[Na+].[Na+].[Na+].[Na+].[Na+].[Na+] [example 12, 6-Per-deoxy-6-per[(2(2-carboxybenzoyl)amino)ethyl]thio-γ-cyclodextrin, Sodium Salt]
  concentration at maximum reversal (at conc.): (0.48) μmol · kg^−1
  % max reversal: 95%
  ED50: dose producing 50% reversal of steady-state neuromuscular block: 0.085 µmol/kg

## OCCSC[C@H]1O[C@@H]2O[C@H]3[C@H](O)[C@@H](O)[C@@H](O[C@H]4[C@H](O)[C@@H](O)[C@@H](O[C@H]5[C@H](O)[C@@H](O)[C@@H](O[C@H]6[C@H](O)[C@@H](O)[C@@H](O[C@H]7[C@H](O)[C@@H](O)[C@@H](O[C@H]8[C@H](O)[C@@H](O)[C@@H](O[C@H]9[C@H](O)[C@@H](O)[C@@H](O[C@H]1[C@H](O)[C@H]2O)O[C@@H]9CSCCO)O[C@@H]8CSCCO)O[C@@H]7CSCCO)O[C@@H]6CSCCO)O[C@@H]5CSCCO)O[C@@H]4CSCCO)O[C@@H]3CSCCO [example 13, 6-Per-deoxy-6-per(2-hydroxyethyl)thio-γ-cyclodextrin]
  concentration at maximum reversal (at conc.): (2.0) μmol · kg^−1
  % max reversal: 96%
  ED50: dose producing 50% reversal of steady-state neuromuscular block: 0.20 µmol/kg

## CNC(=O)CSCC1OC2OC3C(CSCC(=O)NC)OC(OC4C(CSCC(=O)NC)OC(OC5C(CSCC(=O)NC)OC(OC6C(CSCC(=O)NC)OC(OC7C(CSCC(=O)NC)OC(OC8C(CSCC(=O)NC)OC(OC9C(CSCC(=O)NC)OC(OC1C(O)C2O)C(O)C9O)C(O)C8O)C(O)C7O)C(O)C6O)C(O)C5O)C(O)C4O)C(O)C3O (stereo not drawn) [example 14, 6-Per-deoxy-6-per(N-methylamidomethyl)thio-γ-cyclodextrin]
  concentration at maximum reversal (at conc.): (7.3) μmol · kg^−1
  % max reversal: 102%
  ED50: dose producing 50% reversal of steady-state neuromuscular block: 1.54 µmol/kg

## CC(CSC[C@H]1O[C@@H]2O[C@H]3[C@H](O)[C@@H](O)[C@@H](O[C@H]4[C@H](O)[C@@H](O)[C@@H](O[C@H]5[C@H](O)[C@@H](O)[C@@H](O[C@H]6[C@H](O)[C@@H](O)[C@@H](O[C@H]7[C@H](O)[C@@H](O)[C@@H](O[C@H]8[C@H](O)[C@@H](O)[C@@H](O[C@H]9[C@H](O)[C@@H](O)[C@@H](O[C@H]1[C@H](O)[C@H]2O)O[C@@H]9CSCC(C)C(=O)[O-])O[C@@H]8CSCC(C)C(=O)[O-])O[C@@H]7CSCC(C)C(=O)[O-])O[C@@H]6CSCC(C)C(=O)[O-])O[C@@H]5CSCC(C)C(=O)[O-])O[C@@H]4CSCC(C)C(=O)[O-])O[C@@H]3CSCC(C)C(=O)[O-])C(=O)[O-].[Na+].[Na+].[Na+].[Na+].[Na+].[Na+].[Na+].[Na+] (stereo partly drawn) [example 15, 6-Per-deoxy-6-per(2-carboxypropyl)thio-γ-cyclodextrin, Sodium Salt]
  concentration at maximum reversal (at conc.): (0.48) μmol · kg^−1
  % max reversal: 103%
  ED50: dose producing 50% reversal of steady-state neuromuscular block: 0.10 µmol/kg

## O=C([O-])CCCSCC1OC2OC3C(CSCCCC(=O)[O-])OC(OC4C(CSCCCC(=O)[O-])OC(OC5C(CSCCCC(=O)[O-])OC(OC6C(CSCCCC(=O)[O-])OC(OC7C(CSCCCC(=O)[O-])OC(OC8C(CSCCCC(=O)[O-])OC(OC1C(O)C2O)C(O)C8O)C(O)C7O)C(O)C6O)C(O)C5O)C(O)C4O)C(O)C3O.[Na+].[Na+].[Na+].[Na+].[Na+].[Na+].[Na+] (stereo not drawn) [example 16, 6-Per-deoxy-6-per(3-carboxypropyl)thio-β-cyclodextrin, Sodium Salt]
  concentration at maximum reversal (at conc.): (3.2) μmol · kg^−1
  % max reversal: 100%
  ED50: dose producing 50% reversal of steady-state neuromuscular block: 0.5 µmol/kg

## O=S(=O)([O-])CCSCC1OC2OC3C(CSCCS(=O)(=O)[O-])OC(OC4C(CSCCS(=O)(=O)[O-])OC(OC5C(CSCCS(=O)(=O)[O-])OC(OC6C(CSCCS(=O)(=O)[O-])OC(OC7C(CSCCS(=O)(=O)[O-])OC(OC8C(CSCCS(=O)(=O)[O-])OC(OC9C(CSCCS(=O)(=O)[O-])OC(OC1C(O)C2O)C(O)C9O)C(O)C8O)C(O)C7O)C(O)C6O)C(O)C5O)C(O)C4O)C(O)C3O.[Na+].[Na+].[Na+].[Na+].[Na+].[Na+].[Na+].[Na+] (stereo not drawn) [example 17, 6-Per-deoxy-6-per(2-sulfoethyl)thio-γ-cyclodextrin, Sodium Salt]
  concentration at maximum reversal (at conc.): (1.7) μmol · kg^−1
  % max reversal: 106%
  ED50: dose producing 50% reversal of steady-state neuromuscular block: 0.055 µmol/kg

## OCC(CO)(CO)CSCC1OC2OC3C(CSCC(CO)(CO)CO)OC(OC4C(CSCC(CO)(CO)CO)OC(OC5C(CSCC(CO)(CO)CO)OC(OC6C(CSCC(CO)(CO)CO)OC(OC7C(CSCC(CO)(CO)CO)OC(OC8C(CSCC(CO)(CO)CO)OC(OC9C(CSCC(CO)(CO)CO)OC(OC1C(O)C2O)C(O)C9O)C(O)C8O)C(O)C7O)C(O)C6O)C(O)C5O)C(O)C4O)C(O)C3O (stereo not drawn) [example 18, 6-Per-deoxy-6-per(2,2-di(hydroxymethyl)-3-hydroxy-propyl)thio-γ-cyclodextin]
  concentration at maximum reversal (at conc.): (4.9) μmol · kg^−1
  % max reversal: 63%
  ED50: dose producing 50% reversal of steady-state neuromuscular block: 2.9 µmol/kg

## OC1C2OC(CSCCCc3nnn[n-]3)C(OC3OC(CSCCCc4nnn[n-]4)C(OC4OC(CSCCCc5nnn[n-]5)C(OC5OC(CSCCCc6nnn[n-]6)C(OC6OC(CSCCCc7nnn[n-]7)C(OC7OC(CSCCCc8nnn[n-]8)C(OC8OC(CSCCCc9nnn[n-]9)C(OC9OC(CSCCCc%10nnn[n-]%10)C(O2)C(O)C9O)C(O)C8O)C(O)C7O)C(O)C6O)C(O)C5O)C(O)C4O)C(O)C3O)C1O.[Na+].[Na+].[Na+].[Na+].[Na+].[Na+].[Na+].[Na+] (stereo not drawn) [example 19, 6-Per-deoxy-6-per(3-(tetrazol-5-yl)propyl)thio-γ-cyclodextrin, Sodium Salt]
  concentration at maximum reversal (at conc.): (1.2) μmol · kg^−1
  % max reversal: 109%
  ED50: dose producing 50% reversal of steady-state neuromuscular block: 0.22 µmol/kg

## OC[C@H]1O[C@@H]2O[C@H]3[C@H](O)[C@@H](O)[C@@H](O[C@H]4[C@H](O)[C@@H](O)[C@@H](O[C@H]5[C@H](O)[C@@H](O)[C@@H](O[C@H]6[C@H](O)[C@@H](O)[C@@H](O[C@H]7[C@H](O)[C@@H](O)[C@@H](O[C@H]8[C@H](O)[C@@H](O)[C@@H](O[C@H]1[C@H](O)[C@H]2O)O[C@@H]8CO)O[C@@H]7CO)O[C@@H]6CO)O[C@@H]5CO)O[C@@H]4CO)O[C@@H]3CO [β-cyclodextrin, reference compound]
  concentration at maximum reversal (at conc.): (113) μmol · kg^−1
  % max reversal: 93%
  ED50: dose producing 50% reversal of steady-state neuromuscular block: 20 µmol/kg

## OC[C@H]1O[C@@H]2O[C@H]3[C@H](O)[C@@H](O)[C@@H](O[C@H]4[C@H](O)[C@@H](O)[C@@H](O[C@H]5[C@H](O)[C@@H](O)[C@@H](O[C@H]6[C@H](O)[C@@H](O)[C@@H](O[C@H]7[C@H](O)[C@@H](O)[C@@H](O[C@H]8[C@H](O)[C@@H](O)[C@@H](O[C@H]9[C@H](O)[C@@H](O)[C@@H](O[C@H]1[C@H](O)[C@H]2O)O[C@@H]9CO)O[C@@H]8CO)O[C@@H]7CO)O[C@@H]6CO)O[C@@H]5CO)O[C@@H]4CO)O[C@@H]3CO [γ-cyclodextrin, reference compound]
  concentration at maximum reversal (at conc.): (47) μmol · kg^−1
  % max reversal: 104%
  ED50: dose producing 50% reversal of steady-state neuromuscular block: 4 µmol/kg
